Cytotoxicity data for 72 compounds are collected here from ChEMBL document CHEMBL3507680, “University of Dundee, Gates Library screen for HepG2 cell viability”.

The nature of this data set: Human HepG2 cell viability assay in 384 well format. It counts as toxicity, cell-based. Set-up: dose 125 nL, time 70.5 hour; cytotoxicity at 70.5 h: concentration not given beside the values. The following applies: HepG2 cells, read-out: Inhibition.

With `COc1ccc(CN(C)CC2(O)CCN(C(=O)c3cccn3C)C2)cc1` (configuration not stated), the cytotoxicity at 70.5 h is 36.1%.

As for `CNc1cc(C2CCCN2Cc2ccccc2OCC(=O)O)ccn1` (configuration not stated), the cytotoxicity at 70.5 h is -5.11%. On to `CCn1cc(CN2CCc3nc(N4CCOCC4)nc(O)c3CC2)cn1`, for which the cytotoxicity at 70.5 h was found to be 7.44%. For the compound `Cc1noc2nc(C3CCN(Cc4ccncc4)CC3)cc(C(F)F)c12`, the cytotoxicity at 70.5 h stood at 31.7%. As for `CN(C)C(=O)C1CN(Cc2c[nH]cn2)CCN(C2CCOCC2)C1` (configuration not stated), the cytotoxicity at 70.5 h was -0.471%. On to `Cc1ccc(CC(=O)N(C)CC2(O)CCN(c3ccccn3)C2)s1` (configuration not stated), for which the cytotoxicity at 70.5 h was -6.87%.

Turning to `CC(=O)N1CCCC1c1cccc(Cc2ccccc2F)n1` (configuration not stated), the cytotoxicity at 70.5 h came out at 35.5%. For the compound `CC(=O)Nc1nc(C2CCN(CC(N)=O)CC2)cs1`, the cytotoxicity at 70.5 h was -3.74%.

Turning to `Clc1ccc(CN2CCC3(CC2)CC(c2cccnc2)=NO3)cc1`, the cytotoxicity at 70.5 h is 3.85%.

In the case of `CN1CC(=O)N(c2ccccc2)Cc2c(NC3CC3)ncnc21`, the cytotoxicity at 70.5 h stood at 0.416%. As for `Cc1ccc2nc(C3CCN(CC(C)C)CC3)nc(O)c2c1`, the figure is -6.3%. For `CC(C)C1=NOC2(CCN(C(=O)C3CCCC3)CC2)C1`, the cytotoxicity at 70.5 h was -11.9%. `COc1ccccc1-c1cc(C(=O)N(C)C)nc2c1cnn2C`: the cytotoxicity at 70.5 h is -11.4%. `NCCC(=O)N1CCC2(CC1)CN(C(=O)Cc1cccc(Cl)c1)CCO2`: the cytotoxicity at 70.5 h was -15.5%. Regarding `NCC(=O)N1CCC2(CC1)CN(C(=O)Cc1ccc(Cl)cc1)CCO2`, the cytotoxicity at 70.5 h is -14.9%. For the compound `O=C(C1CCCC1)N1CC2(CCCN(C3COC3)C2)Cc2ccccc21` (configuration not stated), the cytotoxicity at 70.5 h was -15.4%. For the compound `O=C(C1CCCC1)N1CC2(CCN(C3COC3)C2)Cc2ccccc21` (configuration not stated), the cytotoxicity at 70.5 h was -10.8%. With `CC(C)(C)c1nnc2n1C(C(=O)N1CCN(c3ncccn3)CC1)CC2` (configuration not stated), the cytotoxicity at 70.5 h was -11.2%. For the compound `CC(C)(C)c1nnc2n1C(C(=O)N1CCOCC1)CC2` (configuration not stated), the cytotoxicity at 70.5 h is -14.7%. In the case of `CC(C)(C)c1nnc2n1C(C(=O)N1CCCC1)CC2` (configuration not stated), the cytotoxicity at 70.5 h is -12.7%.

With `O=C(N1CCCC1)N1CCn2c(nnc2C2CCCN2)C1` (configuration not stated), the cytotoxicity at 70.5 h is -9.61%. With `O=C(Nc1ccccc1)N1CCn2c(nnc2C2CCCN2)C1` (configuration not stated), the cytotoxicity at 70.5 h is -9.71%. The same measure for `CC(C)NC(=O)c1cc(-c2ccc(S(C)(=O)=O)cc2)nc2c1cnn2C`: -13.7%; for `Cc1cc(C(=O)NCC(F)(F)F)c2c(C3CCCN3)noc2n1` (configuration not stated): -7.21%; for `Cc1cc(C(=O)NCc2cccs2)c2c(C3CCCN3)noc2n1` (configuration not stated): -6.49%.

Take `O=C1CC2(CCN(C(=O)C3CCCCC3)C2)Nc2ccccc2N1` (configuration not stated): the cytotoxicity at 70.5 h is -9.46%. For `c1c[nH]c2nc(C3CCCNC3)nc-2c1` (configuration not stated), the cytotoxicity at 70.5 h was -13.7%. For the compound `Cn1nc(C2CCCN2)c2c(C(=O)NCC(F)(F)F)cc(C3CC3)nc21` (configuration not stated), the cytotoxicity at 70.5 h came to 17.1%.

In the case of `CN(C)C(=O)c1nc(-c2ccc(S(C)(=O)=O)cc2)c2cnccn12`, the cytotoxicity at 70.5 h was -6.88%. `CS(=O)(=O)c1ccc(-c2nc(C(=O)N3CCCC3)n3ccccc23)cc1`: the cytotoxicity at 70.5 h was -8.24%. For `CN(C)C(=O)N1CCN(c2ccc(Cl)nn2)C(=O)C1`, the cytotoxicity at 70.5 h was -7.53%. Take `O=C(N1CCOCC1)N1CCN(c2ccc(Cl)nn2)C(=O)C1`: the cytotoxicity at 70.5 h is -6.24%. For the compound `CC(C)C(=O)N1Cc2ccccc2CC2(CCCCN2C)C1` (configuration not stated), the cytotoxicity at 70.5 h is -10.2%. As for `C[C@H](C(=O)N1Cc2ccccc2CC2(CCCN2C)C1)c1ccccc1` (some centres not stated), the figure is -5.49%. Turning to `CS(=O)(=O)N1CC2(CCCN(C3COC3)C2)Cc2ccccc21` (configuration not stated), the cytotoxicity at 70.5 h is -3.97%. `CS(=O)(=O)N1CC2(CCN(C3COC3)C2)Cc2ccccc21` (configuration not stated): the cytotoxicity at 70.5 h was -4.95%. The same measure for `CS(=O)(=O)N1CC2(CCCN(CC3CC3)C2)Cc2ccccc21` (configuration not stated): -3.95%; for `O=C1Nc2ccccc2CN(CC2CC2)C12CCNC2` (configuration not stated): -3.48%. Take `O=C1NCc2ccccc2CC12CCN(Cc1ccncc1Cl)C2` (configuration not stated): the cytotoxicity at 70.5 h was -3.37%. Turning to `O=C(c1ccc(Cl)s1)N1CCC2(COc3ncccc3S(=O)(=O)N2)C1` (configuration not stated), the cytotoxicity at 70.5 h was -8.51%. In the case of `O=C(c1ccncc1)N1CCC2(COc3ncccc3S(=O)(=O)N2)C1` (configuration not stated), the cytotoxicity at 70.5 h was -5.87%. The same measure for `O=C(c1ccccn1)N1CCC2(COc3ncccc3S(=O)(=O)N2)C1` (configuration not stated): -5.57%; for `O=C(c1ccccn1)N1CCC2(CNS(=O)(=O)c3cnccc3O2)C1` (configuration not stated): 17.6%.

On to `CC(=O)N1CCCCC1c1nnc2n1CCNC2` (configuration not stated), for which the cytotoxicity at 70.5 h was 17.5%. For `CC(C)CCN1CCC2(CNS(=O)(=O)c3cccnc3O2)C1` (configuration not stated), the cytotoxicity at 70.5 h worked out at 26.8%. As to `O=S1(=O)NCC2(CCN(Cc3ccc(Cl)s3)C2)Oc2ncccc21` (configuration not stated), the cytotoxicity at 70.5 h stood at 17.2%. For `O=S1(=O)NCC2(CCN(Cc3ccncc3)CC2)Oc2ncccc21`, the cytotoxicity at 70.5 h was determined as 23.1%. In the case of `CC(C)NC(=O)C1CCc2nnc(CNC(=O)c3cccnc3)n21` (configuration not stated), the cytotoxicity at 70.5 h was -2%. In the case of `N#Cc1ccc(SCCC(=O)Nc2ccc(CC(N)=O)cc2)cc1`, the cytotoxicity at 70.5 h came out at 6.57%. For `COC(=O)C1CN(Cc2cc(F)ccc2Br)CCO1` (configuration not stated), the cytotoxicity at 70.5 h is -3.09%. As for `NC(=O)C(NC1CCN(CC2CCCCC2)CC1)c1ccc(F)cc1` (configuration not stated), the cytotoxicity at 70.5 h was -9.96%.

Regarding `N#Cc1ccc(SCCC(=O)NC(N)=O)cc1`, the cytotoxicity at 70.5 h is -12.4%. In the case of `CSCCC(=O)N1CCN(CC(O)C(C)(C)C)CC1` (configuration not stated), the cytotoxicity at 70.5 h is 24.8%. For `CCCS(=O)(=O)CC(=O)Nc1ccsc1`, the cytotoxicity at 70.5 h was found to be 7.39%.

Turning to `CS(=O)(=O)CCC(=O)Nc1ccsc1`, the cytotoxicity at 70.5 h is -14.4%. Regarding `CCN(CC)S(=O)(=O)CC(=O)Nc1ccsc1`, the cytotoxicity at 70.5 h is -14.5%.

Consider `CN1CCN(C(=O)C2(NC(N)=O)CCCCC2)Cc2ccccc21`, for which the cytotoxicity at 70.5 h is -7.76%. `O=C(NC1CC1)c1cnc2n1CCCC2`: the cytotoxicity at 70.5 h is 6.87%.

As for `N#CCc1ccc(NC(=O)N[C@H](CO)Cc2ccc(O)cc2)cc1`, the cytotoxicity at 70.5 h is -9.07%. As for `Cc1ccc(CNc2ccn(CCC(N)=O)n2)c(Br)c1`, the cytotoxicity at 70.5 h was determined as 8.15%.

Consider `COC(=O)[C@@H]1C[C@@H](O)CN1Cc1ccn(-c2ccc(F)cc2)n1`, for which the cytotoxicity at 70.5 h was -10.3%.

`CCC(C)(CC(=O)OC)NCc1c(C)noc1C` (configuration not stated): the cytotoxicity at 70.5 h is -4.55%. On to `CCc1ccc(C(=O)NC2CCCN(c3ccn(C)n3)C2=O)o1` (configuration not stated), for which the cytotoxicity at 70.5 h came out at 9.2%. For the compound `CN(Cc1cc(Br)cn1C)C(=O)Cc1cccc(O)c1`, the cytotoxicity at 70.5 h was -3.37%.

For `COCCN1CCN(Cc2coc(-c3ccccc3Cl)n2)CC1`, the cytotoxicity at 70.5 h is -10.2%. As to `CCN(CC(=O)NC)C(=O)c1sc(Cc2ccccc2)nc1C`, the cytotoxicity at 70.5 h was -11.7%. As for `CCn1ccnc1CN1CCN(C(C)C)CC1C` (configuration not stated), the cytotoxicity at 70.5 h was -3.75%. With `CCC1CN(CCNS(C)(=O)=O)c2ccccc2O1` (configuration not stated), the cytotoxicity at 70.5 h is -2.49%. As for `CCC1CN(CCCNS(C)(=O)=O)c2ccccc2O1` (configuration not stated), the figure is -4.06%; as for `CNC(=O)NC(=O)C(C)N1CCN(C2CCCC2)CC1` (configuration not stated), -4.93%.

Take `Cc1nc(C2(O)CCCNCC2)sc1CCOc1ccc(Cl)cc1` (configuration not stated): the cytotoxicity at 70.5 h turned out to be 31.6%. Turning to `c1ccc(CC2CCN(Cc3ccnc(-c4cccnc4)n3)CC2)cc1`, the cytotoxicity at 70.5 h was -3.3%.
